Results reported in patent US20240309004A1, “SELECTIVE CYCLIN-DEPENDENT KINASE INHIBITORS AND METHODS OF THERAPEUTIC USE THEREOF” (ViroKyne Therapeutics, LLC, priority 2021, published 2024).
Read-outs that look alike come from different tables or passages of the source.

Assays:
[1] = Cytotoxicity concurrent with Adenovirus primary assay; assay type: cell-based; settings: human
[2] = Cytotoxicity concurrent with HCMV AD169 primary assay; assay type: cell-based, human; settings: human, CC50
[3] = system: Adenovirus Adenoid75 strain; assay: Adenovirus primary assay, Adenoid75 strain, HFF cells; assay type: cell-based; settings: unidentified adenovirus, Adenovirus primary assay, HFF cells, Adenoid75 strain; for EC50: read-out: EC50; for EC90: read-out: EC90
VZV strain Ellen = assay: VZV primary assay, strain Ellen, HFF cells; assay type: cell-based, Varicella Zoster Virus; settings: Human alphaherpesvirus 3, VZV primary assay, strain Ellen, cell line HFF; for EC50: read-out: EC50; for EC90: read-out: EC90
Procedure: (§1) Assays were performed in monolayers as described. […] Toxicity was measured using CTG as above. […] Toxicity was measured using CTG as above.
(§2) Monolayers of HFF cells were prepared in six-well plates and incubated at 37° C. for 2 d to allow the cells to reach confluency. Media was then aspirated from the wells and 0.2 mL of virus-containing solution was added to each of three wells to yield 20-30 plaques in each well. The virus was allowed to adsorb to the cells for 1 h and the plates were agitated every 15 minutes. Compounds were diluted in assay media consisting of MEM with Earl's salts supplemented with 2% FBS, glutamine, penicillin, and gentamycin. Diluted drug was added to duplicate wells and the plates were incubated for various times, depending on the virus used. For HSV-1 and -2, the monolayers were then stained with 1% crystal violet in 20% methanol and the unbound dye removed by washing with dH20. For all other assays, the cell monolayer was stained with 1% Neutral Red solution for 4-6 h then the stain was aspirated and the cells were washed with PBS.

[4] = Cytotoxicity concurrent with HSV1 E-377 primary assay; assay type: cell-based; settings: human
Procedure: as §1

[5] = Cytotoxicity concurrent with Adenovirus secondary assay; assay type: cell-based; settings: human, uninfected HFF cell monolayers; Adeno secondary assay, HFF cells
Procedure: (§3) Monolayers of HFF cells were prepared in 96-well plates and incubated at 37° C. for 1 d to allow the cells to reach confluency. Media was then aspirated from the wells and cells infected at a high MOI. At 1 h following infection, the inocula were removed and the monolayers rinsed with fresh media. […] Drug dilutions were added to the wells and the plates were incubated for various times, depending on the virus used and represents a single replication cycle for the virus. A duplicate set of dilutions were also performed but remained uninfected to serve as a cytotoxicity control and received equal compound exposure. Supernatants from each of the infected wells were subsequently titered using CTG in a TCID50 assay to quantify the progeny virus. For HCMV only, viral yield in the supernatants from the infected cells were titered using qPCR with HCMV primers [NT], and probe [NT].

[6] = Cytotoxicity concurrent with EBV primary assay; settings: human, Akata cells without virus induction
HCMV strain AD169 = assay: HCMV primary assay (CPE), strain AD169, HFF cells; assay type: cell-based, Human Cytomegalovirus; settings: HCMV primary assay, virus strain AD169, HFF cells; for EC50: read-out: EC50; for EC90: read-out: EC90
Procedure: The antiviral activity of the compound against HCMV in the described Primary assay was measured by treating primary Human foreskin fibroblast (HFF) cells infected with HCMV with a range of compound concentrations—description of methods for this assay can be found in section 1.3.2.1. […] . Additional tested assay parameters in this Primary assay can be found in Table 3.2.1 and include EC90, S150, and S190 values—descriptions of those data points can be found in section 3.2.1.

[7] = system: Epstein-Barr virus Akata strain; assay: Epstein-Barr primary assay, Akata strain, Akata cells; assay type: cell-based; settings: human gammaherpesvirus 4, Epstein-Barr primary assay, Akata strain, Akata cells; for EC50: read-out: EC50; for EC90: read-out: EC90
[8] = Cytotoxicity concurrent with HSV2 primary assay; assay type: cell-based; settings: human
Procedure: as §1

HSV1 strain E-377 = assay: HSV1 primary assay, strain E-377, HFF cells; assay type: cell-based, Herpes Simplex Virus 1; settings: Human alphaherpesvirus 1, HSV1 primary assay, strain E-377, HFF cells; for EC50: read-out: EC50; for EC90: read-out: EC90
Procedure: as §1, §2

[9] = Cytotoxicity concurrent with VZV Ellen primary assay; assay type: cell-based; settings: human
Procedure: as §1

[10] = system: Adenovirus Adenoid75 strain; assay: Adenovirus secondary assay (yield reduction), Adenoid75 strain, HFF cells; assay type: cell-based; settings: unidentified adenovirus; Adeno secondary assay, strain Adenoid75, HFF cells; read-out: EC90
Procedure: as §3

HSV2 strain G = assay: HSV2 primary assay, strain G, HFF cells; assay type: cell-based, herpes simplex virus 2; settings: Human alphaherpesvirus 2, HSV2 primary assay, strain G, HFF cells; for EC50: read-out: EC50; for EC90: read-out: EC90
Procedure: as §1, §2

CDK9/cyclin T1 = CDK9/cyclin T1 (Homo sapiens (Human), UniProt P50750); assay: Kinase activity assay, CDK9/cyclin T1; assay type: biochemical; settings: Table 3.1.1; 10 μM ATP; 10-dose duplicate, 3-fold serial dilution starting at 10 μM; read-out: Compound IC50 CDK9/cyclin T1
Sequence of CDK9/cyclin T1 (P50750 whole entry): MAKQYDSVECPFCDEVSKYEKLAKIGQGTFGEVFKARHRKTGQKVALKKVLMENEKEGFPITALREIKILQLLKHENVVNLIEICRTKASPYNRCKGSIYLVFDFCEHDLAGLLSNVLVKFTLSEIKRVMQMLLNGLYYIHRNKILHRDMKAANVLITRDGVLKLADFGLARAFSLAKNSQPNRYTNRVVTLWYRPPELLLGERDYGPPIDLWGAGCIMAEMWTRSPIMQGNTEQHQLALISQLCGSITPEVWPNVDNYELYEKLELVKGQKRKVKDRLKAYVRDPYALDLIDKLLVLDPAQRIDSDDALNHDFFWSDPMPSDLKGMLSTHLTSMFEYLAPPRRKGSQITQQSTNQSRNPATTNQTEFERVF
Sequence of CDK9/cyclin T1 (O60563 whole entry partner): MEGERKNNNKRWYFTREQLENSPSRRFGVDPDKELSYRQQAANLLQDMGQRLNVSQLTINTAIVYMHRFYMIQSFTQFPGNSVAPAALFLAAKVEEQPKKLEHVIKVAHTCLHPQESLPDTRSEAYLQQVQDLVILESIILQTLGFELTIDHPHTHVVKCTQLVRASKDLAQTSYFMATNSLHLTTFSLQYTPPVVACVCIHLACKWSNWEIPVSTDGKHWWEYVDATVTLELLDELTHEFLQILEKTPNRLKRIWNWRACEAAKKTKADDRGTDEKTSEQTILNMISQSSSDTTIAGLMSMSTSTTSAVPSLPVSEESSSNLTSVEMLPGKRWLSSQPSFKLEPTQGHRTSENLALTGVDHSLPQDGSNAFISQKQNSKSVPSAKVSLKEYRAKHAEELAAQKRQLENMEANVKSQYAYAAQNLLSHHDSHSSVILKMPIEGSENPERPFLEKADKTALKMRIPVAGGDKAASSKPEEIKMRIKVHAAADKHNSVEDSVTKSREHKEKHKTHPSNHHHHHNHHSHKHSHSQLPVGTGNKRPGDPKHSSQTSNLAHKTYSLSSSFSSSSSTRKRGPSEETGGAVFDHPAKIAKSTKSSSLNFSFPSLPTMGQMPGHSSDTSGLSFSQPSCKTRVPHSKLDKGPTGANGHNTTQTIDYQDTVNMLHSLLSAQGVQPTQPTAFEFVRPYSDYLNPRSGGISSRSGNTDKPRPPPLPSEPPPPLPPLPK

HFF cells = assay: Cytotoxicity concurrent with HCMV AD169 primary assay; assay type: cell-based, human
[11] = Metabolic stability in mice liver microsomes; settings: mouse, microsomes, 1 h
Procedure: Potassium phosphate buffer (Kphos) was prepared by adding 0.647 g potassium phosphate monobasic (KH2PO4) and 3.527 g potassium phosphate dibasic (K2HPO4) to 400 mL of Milli-Q water. pH of the buffer was adjusted to 7.4 and volume was made up to 500 mL.
Stock solutions of the test compounds were prepared in DMSO at a concentration of 1 mM.
To this microsomal mix 1.42 μL (1 mM) of test compound and positive control were spiked, from this mix 70 μL was transferred to 96 well plate and pre-incubated at 37° C. for 5 min. […] The plates were centrifuged at 4000 RPM for 15 min and 100 μL aliquots were submitted for analysis by LC-MS/MS.
Samples were monitored for parent compound disappearance in MRM mode using LC-MS/MS. The LC-MS/MS conditions and MRM chromatogram will be provided as per client request.
The peak area ratios of analyte versus internal standard were used to calculate the % remaining at the end of 60 minutes in presence NADPH.

[12] = system: HCMV strain GDGr K17 - resistant isolate; assay: HCMV primary assay, resistant isolate GDGr K17, HFF cells; assay type: cell-based, Human Cytomegalovirus; settings: Human betaherpesvirus 5, HFF
Procedure: as §1

[13] = system: HSV1 strain DM.2 - resistant isolate; assay: HSV1 primary assay, resistant isolate DM.2, HFF cells; assay type: cell-based, Herpes Simplex Virus 1; settings: Human alphaherpesvirus 1, HFF
Procedure: as §1, §2

In the case of `Fc1ccc2c(c1)nn1cnc(NC3CCCOCC3)cc21` (stereo not drawn) [VKT-015], the CC50 [1] is reported as 41.8 µM, the CC50 [2] is reported as 27.7 µM and the EC50 [3] is reported as 7.13 µM. For the same molecule, the EC90 [3] was 10 µM, the EC50 (VZV strain Ellen) was 10 µM and the EC90 (VZV strain Ellen) was 10 µM. For the same molecule, the CC50 [4] was 50 µM, the CC50 [5] was 48.6 µM and the CC50 at 72 h [6] was 50 µM. For the same molecule, the EC50 (HCMV strain AD169; Human betaherpesvirus 5) was 10 µM, the EC90 (HCMV strain AD169; Human betaherpesvirus 5) was 10 µM and the EC50 [7] was 8.73 µM. The EC90 [7] was 29.9 µM, the CC50 [8] was 50 µM and the EC50 (HSV1 strain E-377) was 50 µM. The EC90 (HSV1 strain E-377) was 50 µM, the CC50 [9] was 39.7 µM and the EC90 [10] was 17.5 µM. The EC50 (HSV2 strain G) was 50 µM and the EC90 (HSV2 strain G) was 50 µM.

With `O=S1(=O)CCC(Nc2cc3c4ccc(F)cc4nn3cn2)CC1` [VKT-018] the CC50 [1] was 50 µM, the CC50 [2] was 50 µM and the EC50 [3] was 3.69 µM. For the same molecule, the EC90 [3] was 50 µM, the EC50 (VZV strain Ellen) was 50 µM and the EC90 (VZV strain Ellen) was 50 µM. It also gave a CC50 [4] of 50 µM, a CC50 [5] of 97.1 µM and a CC50 at 72 h [6] of 50 µM. The EC50 (HCMV strain AD169; Human betaherpesvirus 5) was 50 µM, the EC90 (HCMV strain AD169; Human betaherpesvirus 5) was 50 µM and the EC50 [7] was 45.7 µM. The EC90 [7] was 50 µM, the CC50 [8] was 50 µM and the EC50 (HSV1 strain E-377) was 50 µM. For the same molecule, the EC90 (HSV1 strain E-377) was 50 µM, the CC50 [9] was 50 µM and the EC90 [10] was 16.4 µM. The EC50 (HSV2 strain G) was 50 µM and the EC90 (HSV2 strain G) was 50 µM.

In the case of `N[C@H]1CC[C@H](Nc2cc3c4ccc(F)cc4nn3cn2)CC1` [VKT-511, (1r,4r)-N1-(7-fluoropyrimido[1,6-b]indazol-3-yl)cyclohexane-1,4-diamine], the IC50 (CDK9/cyclin T1) is reported as 0.0465 µM, the CC50 (HFF cells) is reported as 6.98 µM and the EC50 (HCMV strain AD169) is reported as 2 µM. For the same molecule, the EC90 (HCMV strain AD169) was 2 µM and the “% Remaining at 60 min” value [11] was 107%.

With `Nc1nc2c(ncn2COCCO)c(=O)[nH]1` [Acyclovir, reference compound] the EC50 [12] was 16.8 µM, the EC50 (VZV strain Ellen) was 5.59 µM and the EC90 (VZV strain Ellen) was 69.4 µM. The EC50 [13] was 150 µM, the EC50 (HSV1 strain E-377) was 2.56 µM and the EC50 (HSV2 strain G) was 2.56 µM.
